{"source": "paper PMC5923171", "about": "“Novel Zinc-Attenuating Compounds as Potent Broad-Spectrum Antifungal Agents with In Vitro and In Vivo Efficacy” (Antimicrobial Agents and Chemotherapy, 2018)", "key": {"[1]": {"test_system": "Mucor indicus ATCC MYA-4678", "assay": "Antifungal susceptibility testing (MIC)", "assay_type": "cell-based", "conditions": "no visible growth, 48 to 72 h, 34°C", "protocol": "(§1) Antifungal susceptibility testing was carried out as described previously ([38], [39]), with a few modifications. Briefly, for each yeast or mold growth inhibition assay, frozen stocks of yeast cells or spores were diluted to a final concentration of 0.5 × 10^5 to 2.5 × 10^5 CFU/ml in sterile water. ZAC989, ZAC307, and ZAC623 were dissolved in DMSO to 10 mM stocks from which half-log serial dilutions were prepared. Growth assays were subsequently performed by pipetting 3 μl of compound dissolved in DMSO (giving a final concentration of 1.5% DMSO), 100 μl of cell-spore suspension, and 97 μl of 2× RPMI medium (20.8 g/liter of RPMI 1640 medium, 69.06 g/liter of morpholinepropanesulfonic acid [MOPS], 36 g/liter of glucose) into a microtiter plate that was incubated for 24 h (yeasts) or 48 to 72 h (molds) at 34°C. Fungal growth was determined spectrophotometrically by optical density reading of each well at a wavelength of 492 nm on a Victor X5 (Perkin-Elmer) plate reader. […] Standard errors between repeated experiments were generally below 5%. The growth effect of exogenous addition of various divalent metals was evaluated by performing the antifungal susceptibility assay in the presence of 5 μM ZAC989 or ZAC307 and with increasing concentrations (0.003 to 50 μM) of ZnSO4, CuSO4, (NH4)2Fe(SO4)2, MgCl2, and CaCl2."}, "[2]": {"test_system": "Aspergillus terreus At070", "assay": "Antifungal susceptibility testing (MIC)", "assay_type": "cell-based", "conditions": "no visible growth, 48 to 72 h, 34°C", "protocol": "as §1"}, "[3]": {"test_system": "Rhizopus oryzae ATCC 34965", "assay": "Antifungal susceptibility testing (MIC)", "assay_type": "cell-based", "conditions": "Rhizopus arrhizus, ATCC34965; no visible growth, 48 to 72 h, 34°C", "protocol": "as §1"}, "[4]": {"test_system": "Aspergillus fumigatus ATCC 13073", "assay": "Antifungal susceptibility testing (MIC)", "assay_type": "cell-based", "conditions": "ATCC13073, no visible growth, 48 to 72 h, 34°C", "protocol": "as §1"}, "C. tropicalis Ct016": {"test_system": "C. tropicalis Ct016", "assay": "Antifungal susceptibility testing (MIC)", "assay_type": "cell-based", "conditions": "Candida tropicalis, at least 50% growth inhibition, RPMI, 24 h, 34°C", "protocol": "as §1"}, "[5]": {"test_system": "Rhizopus microsporus ATCC 66276", "assay": "Antifungal susceptibility testing (MIC)", "assay_type": "cell-based", "conditions": "ATCC66276, no visible growth, 48 to 72 h, 34°C", "protocol": "as §1"}, "[6]": {"assay": "Potentiometric titration, deprotonation constant", "assay_type": "physicochemical", "conditions": "DMSO-water (70:30, vol/vol), 25°C, 0.1 M NaClO4", "protocol": "(§2) The Zn^2+-binding properties of ZAC307 and ZAC989 were further evaluated using a potentiometric assay, where pH is measured as a function of base (NaOH) added to the compound in either the absence or presence of metal. […] To determine the deprotonation constant, a solution of 1 mM ZAC307 or ZAC989 was titrated with 0.3 M NaOH at constant ionic strength (Fig. 2A and B). In a second run, the same titration was performed in the presence of 0.5 eq of Zn^2+ for ZAC307 and ZAC989. A shift in the pH curve in the presence of the metal (ZAC307, 0.5 eq of Zn^2+ [Fig. 2A]) compared to the absence of the metal (ZAC307 [Fig. 2A]) indicates binding of Zn^2+ to the compound. The measured pH data were analyzed with the Hyperquad program suite, taking into account all relevant equilibrium constants, including also the constants for metal hydroxylation. The analysis provides the pKa values and metal complex stability constants, as well as ligand-metal complex speciation calculation, indicating how many ZAC molecules are involved in coordinating the Zn^2+ ion at different pH values. […] ZAC989 bound copper with the formation constants log β1, log β2, and log β3 of 7.83, 13.37, and 20.62, respectively. The most dominant ZAC989-copper stoichiometry was a 3:1 stoichiometry (Fig. 2E).\n(§3) Potentiometric measurements were carried out in DMSO-water (70:30, vol/vol) at 25°C as described previously ([22]). […]"}, "[7]": {"assay": "Potentiometric titration with CaCl2", "assay_type": "binding", "conditions": "DMSO-water (70:30, vol/vol)", "protocol": "as §2, §3"}, "Candida albicans SC5314": {"test_system": "Candida albicans SC5314", "assay": "In vivo fungal kidney burden candidiasis model", "design": "species or system BALB/c mice", "conditions": "for Mean log CFU/kidney / Mean log CFU/kidney reduction: 60 mg/kg i.p. twice a day; for Mean log CFU/kidney reduction: vs untreated control; for adverse effects following dosing: 60 mg/kg i.p., mice", "protocol": "A murine model of systemic candidiasis was established according to a previously described method ([44]). BALB/c mice were infected with a 0.1-ml inoculum (1 × 10^5 to 5 × 10^5 CFU) of Candida albicans SC5314 cells by the intravenous route on day 0. Compounds were tested at doses of 60 mg/kg. Administration of compound was initiated 24 h prior (day −1) to infection (day 0) by the intraperitoneal route, dosing twice a day for 4 days (day −1 to day 2). ZAC307 was also evaluated with administration of the compounds given after the infection at day 0 (no pretreatment) and following dosing twice a day for 3 days (days 0 to 2). Fluconazole was used as a comparator drug. Six mice were used for each group, and the untreated control group was exposed to the vehicle alone. ZAC989 and ZAC307 were formulated by taking 60 mg of compound and adding this to 2 ml and 4 ml of 0.1 N NaOH, respectively. After mixing and sonication of the resulting solutions, 4 ml of purified water was added. The pH was adjusted to 9.0 with 0.1 N HCl solution, followed by the addition of 90 mg of NaCl. The solutions were then diluted to 10 ml and filtered through a 0.22-μm polyvinylidene difluoride (PVDF) filter. Sample collection and processing were performed as follows. Twelve hours after the last dose, all treated and untreated animals were sacrificed by cervical dislocation and kidneys were collected in 3 ml of sterile normal saline. The samples were homogenized, serially diluted, and plated on Sabouraud dextrose agar (SDA). SDA plates were incubated for 24 to 48 h at 35°C, and CFU were enumerated and reported as log CFU/kidney. The endpoint was mean log CFU of fungi in kidneys of treated animals compared to that of untreated animals. The study was conducted in conformance with an application submitted to the Committee for the Purpose of Control and Supervision of Experiments on Animals (CPCSEA), New Delhi, India, after approval from the Institutional Animal Ethics Committee (IAEC)."}}, "note": "Marks after values point to notes of the source that are not given here.", "data": [{"molecule": "CN(C)c1cc(-n2nc(-c3ccccc3)cc2O)ncn1", "note": "[ZAC307, 2-[6-(dimethylamino)pyrimidin-4-yl]-5-phenyl-pyrazol-3-ol]", "values": [{"measurement": "MIC", "setting": "[1]", "result": 1.3, "unit": "µg/mL"}, {"measurement": "MIC", "setting": "[2]", "result": 1.3, "unit": "µg/mL"}, {"measurement": "MIC", "setting": "[3]", "result": 1.3, "unit": "µg/mL"}, {"measurement": "MIC", "setting": "[4]", "result": 4, "unit": "µg/mL"}, {"measurement": "MIC", "setting": "C. tropicalis Ct016", "result": 0.4, "unit": "µg/mL"}, {"measurement": "MIC", "setting": "[5]", "result": 0.4, "unit": "µg/mL"}, {"measurement": "pKa", "setting": "[6]", "result": 6.84}, {"measurement": "Ca^2+ binding", "setting": "[7]", "result": "negligible"}, {"measurement": "Mean log CFU/kidney", "setting": "Candida albicans SC5314; day −1 to day 2 (pretreatment)", "result": "4.73 ± 0.19", "unit": "log CFU/kidney"}, {"measurement": "Mean log CFU/kidney reduction", "setting": "Candida albicans SC5314; day −1 to day 2 (pretreatment)", "result": 1.06, "unit": "log CFU/kidney"}, {"measurement": "Mean log CFU/kidney", "setting": "Candida albicans SC5314; days 0 to 2, no pretreatment", "result": "4.77 ± 0.19", "unit": "log CFU/kidney"}, {"measurement": "Mean log CFU/kidney reduction", "setting": "Candida albicans SC5314; days 0 to 2, no pretreatment", "result": "1.03* log CFU/kidney"}, {"measurement": "adverse effects following dosing", "setting": "Candida albicans SC5314", "result": "no adverse effects"}]}, {"molecule": "Cc1cc(O)n(-c2cc(N3CC[C@H](Oc4cnccc4C#N)C3)ncn2)n1", "note": "[ZAC989, 3-[(3S)-1-[6-(5-hydroxy-3-methyl-pyrazol-1-yl)pyrimidin-4-yl]pyrrolidin-3-yl]oxy-pyridine-4-carbonitrile]", "values": [{"measurement": "MIC", "setting": "[1]", "result": 1.1, "unit": "µg/mL"}, {"measurement": "MIC", "setting": "[2]", "result": 1.6, "unit": "µg/mL"}, {"measurement": "MIC", "setting": "[3]", "result": 1.7, "unit": "µg/mL"}, {"measurement": "MIC", "setting": "[4]", "result": 5.4, "unit": "µg/mL"}, {"measurement": "MIC", "setting": "C. tropicalis Ct016", "result": 0.9, "unit": "µg/mL"}, {"measurement": "MIC", "setting": "[5]", "result": 0.5, "unit": "µg/mL"}, {"measurement": "pKa", "setting": "[6]", "result": 7.7}, {"measurement": "Ca^2+ binding", "setting": "[7]", "result": "negligible"}, {"measurement": "Mean log CFU/kidney", "setting": "Candida albicans SC5314; day −1 to day 2 (pretreatment)", "result": "4.09 ± 0.31", "unit": "log CFU/kidney"}, {"measurement": "Mean log CFU/kidney reduction", "setting": "Candida albicans SC5314; day −1 to day 2 (pretreatment)", "result": 1.71, "unit": "log CFU/kidney"}, {"measurement": "adverse effects following dosing", "setting": "Candida albicans SC5314", "result": "lethargy lasting for 5 to 15 min after dosing"}]}]}
